# Assay results: US20240336658A1, “CYCLIC PEPTIDE AND PREPARATION METHOD AND USE THEREOF” (HANGZHOU HUIBO SCIENCE AND TECHNOLOGY CO., LTD, priority 2021, published 2024)
# Key:
# [1] = test system: full-thickness skin defect wound surfaces; experiment: Effects of cyclic peptide Hst1 on wound repair in mice (Example 10): healing rate, HE/Masson histology, CD31/VEGF immunohistochemistry; format: in vivo, C57 BL/6 mice
# Method: This example adopted the propargylglycine-Hst1 cyclic peptide (Click-Histatin1) provided in Example 1, a cyclized Hst1 (Sortase A-cyclic histatin1) prepared by the Sortase A enzymatic method provided in Example 4, and a linear peptide Hst1 (Histatin1) to conduct animal experiments to observe the effect of the propargylglycine-Hst1 on the healing rates of the wound surfaces of mice. The concentration of the linear peptide Hst1 was 10 μM, the concentration of the propargylglycine-Hst1 cyclic peptide was 0.1 μM, and the concentration of the cyclized Hst1 prepared by the Sortase A enzymatic method was each 0.1 μM. 12 healthy male special pathogen-free grade C57 BL/6 mice (purchased from Guangdong Experimental Animal Center) of 6-8 weeks old and weighing 22-28 g. They were intraperitoneally injected with 5 ml/kg of 1% pentobarbital sodium for anesthesia. After the mice had no corneal reflex, the hair on their backs was carefully removed and disinfected with alcohol. […] full-thickness skin defect wound surfaces were prepared on the back of each mouse by using a circular skin punch. The 12 mice were divided into a Control (blank) group with 3 mice, a 10 μM linear peptide Hst1 (Histatin1) group with 3 mice, a 0.1 μM propynylglycine-Hst1 cyclic peptide (Click-Histatin1) group with 3 mice, and a 0.1 μM cyclized Hst1 prepared by a Sortase A enzymatic method (Sortase A-cyclic histatin1) group with 3 mice, according to a random number table method. Each wound surface was added with 0.5 ml of four drugs respectively, and administration was conducted every day until the wound surfaces of the experimental groups healed. Photographs were taken on days 0, 3, 5, 7, and 10 after surgery, and wound tissues were sampled on day 10 for subsequent pathological staining. On days 0, 3, 5, 7, and 10 after injury, the general condition of wound healing of the mice was observed and photographed with a digital camera (see FIG. 4), and the wound healing rate was calculated (see FIG. 5). Wound healing rate=(wound area immediately after injury−unhealed wound area at each time point)[…]wound area immediately after injury×100%. The wound specimens were fixed in 4% paraformaldehyde for 48 hours, rinsed with tap water for 10 minutes, dehydrated with graded ethanol, permeabilized with xylene, and embedded in paraffin to prepare 4 μm thick sections. Some sections were taken for HE staining and Masson staining, and observed for the thickness of the granulation tissue, the length of the dermal gap, and the newly grown collagen of the wound surface under an inverted fluorescence microscope at 40×, 100×, 200×, and 400× respectively (see FIGS. 6 and 7). 5 sections were taken from each mouse, and 5 fields of view were selected for each section. Data analysis was performed using the software Image-pro Plus. […] It was added with a rabbit anti-mouse CD31 primary antibody (with a dilution ratio of 1:300) and a mouse anti-VEGF (with a dilution ratio of 1:100), incubated overnight at 4° C., and washed with PBS. […] It was subjected to DAB development, hematoxylin counterstaining. gradient ethanol dehydration, xylene permeabilization, and resin blocking. 5 sections were taken from each mouse, and 5 fields of view were selected for each section. The sections were observed under a 400× inverted fluorescence microscope, and analyzed for the number of CD31-positive blood vessels (see FIG. 8) and VEGF expression amounts (see FIG. 9, shown in brown) by using Image-pro Plus software. The measurement data were expressed by M±SD, and the data were analyzed by one-way analysis of variance (ANOVA) and an independent samples T-test with SPSS 20.0 software to detect whether the differences among the groups were statistically significant, and a Bonferroni test was used for pairwise comparison. *p<0.05. **p<0.01. ***p<0.001 meant the difference was statistically significant, and p>0.05 was not statistically significant.
# fibroblasts (NIH/3T3) = experiment: Scratch experiment, Hst1-MAD cyclic peptides (Example 23); format: cell-based; conditions: dose required to achieve the same pharmaceutical effect in the scratch experiment
# Source text: In this example, the propargylglycine-Hst1-MAD cyclic peptide, the homopropargylglycine-Hst1-MAD cyclic peptide, the dihomopropargylglycine-Hst1-MAD cyclic peptide and the linear Hst1 prepared in Examples 13, 14, and 15, and the Hst1-MAD head-to-tail cyclic peptide or N-terminal and C-terminal cyclized peptide prepared by the amide bond cyclization method provided by the literature of for example Sortase A as a tool for high-yield histatin cyclization, Jan G. M. Bolscher, The FASEB Journal. Research Communication, were adopted respectively, the reaction time was recorded, the yield of the reaction product was detected by HPLC, the proportion of side reactions in the reaction product was calculated, and activity comparison was performed. The activity comparison method was to calculate the dose required to achieve the same pharmaceutical effect through a scratch experiment. […] After 12 hours and 24 hours of culture, the scratched area of each group was calculated by using imageJ (Rawak Software, Inc. Germany) software, and the scratch area at 0 hour was an initial scratch area. The scratch healing rate was calculated in the following manner: W % (scratch healing rate)=(W0−Wt)/W0×100%, where W0=an initial scratch area, and Wt=a remaining scratch area; and the results were as shown in Table 14.
# [2] = day 10, immunohistochemistry, 0.1 μM Click-Histatin1, 10 μM Histatin1
substance,measurement,setting,value
"Linear Hst1: linear peptide Hst1 (Histatin1), amino acid sequence SEQ ID NO.1",healing rate of the wound surface,"[1]; day 7, 10 μM Histatin1 vs 0.1 μM Click-Histatin1",no significant difference
same,dermal gap length at both ends of the wound surface,"[1]; day 10, HE staining, 0.1 μM Click-Histatin1, 0.1 μM Sortase A-cyclic histatin1, 10 μM Histatin1",longest dermal gap length
same,expression amount of collagen at the wound surfaces,"[1]; day 10, Masson staining, 0.1 μM Click-Histatin1, 0.1 μM Sortase A-cyclic histatin1, 10 μM Histatin1",significantly higher than that of the Control group
same,VEGF expression amount,[1]; [2],higher than that in the Control group
same,number of CD31-positive blood vessels under each field of view,[1]; [2],significantly higher than that in the Control group
same,Dosage of agents required for scratch test,fibroblasts (NIH/3T3),10 µM
